Reference: ChEMBL document CHEMBL6083233, “Modified (2'-deoxy)adenosines activate autophagy primarily through AMPK/ULK1-dependent pathway” (2024)
The source made the active and inactive calls. The rule behind the calls is not given here.

Assays:
SH-SY5Y [1] = experiment: Activation of autophagy in human SH-SY5Y cells expressing AMPK-/-/GFP-LC3-RFP assessed as increase in green-to-red signal ratio at 25 to 250 mkM; format: functional, cell-based; details: dose 25-250 mkM
[2] = Activation of autophagy in human SH-SY5Y cells expressing GFP-LC3-RFP assessed as green-to-red signal ratio at 2.5 mkM relative to control; format: functional; details: at 2.5 µM
SH-SY5Y [3] = experiment: Activation of mitophagy in human SH-SY5Y cells expressing GFP-LC3-RFP assessed as increase in phospho-ubiquitin level at 25 to 250 mkM by Western blot analysis; format: functional, cell-based; details: dose 25-250 mkM
SH-SY5Y [4] = experiment: Effect on AKT phosphorylation at T308 in human SH-SY5Y cells expressing GFP-LC3-RFP at 25 to 250 mkM by Western blot analysis; format: functional, cell-based; details: dose 25-250 mkM
SH-SY5Y [5] = experiment: Activation of autophagy in human SH-SY5Y cells expressing GFP-LC3-RFP assessed as increase in LC3-II level at 25 to 250 mkM by Western blot analysis; format: functional, cell-based; details: dose 25-250 mkM
SH-SY5Y [6] = experiment: Activation of autophagy in human SH-SY5Y cells expressing GFP-LC3-RFP assessed as increase in AMPK phosphorylation by Western blot analysis; format: functional, cell-based; details: dose 25-250 mkM
SH-SY5Y [7] = experiment: Effect on TSC2 phosphorylation in human SH-SY5Y cells expressing GFP-LC3-RFP at 25 to 250 mkM by Western blot analysis; format: functional, cell-based; details: dose 25-250 mkM
[8] = Activation of autophagy in human SH-SY5Y cells expressing GFP-LC3-RFP assessed as green-to-red signal ratio at 250 mkM relative to control; format: functional; details: at 250 µM
SH-SY5Y [9] = experiment: Activation of autophagy in human SH-SY5Y cells expressing SIRT1-/-/GFP-LC3-RFP assessed as increase in green-to-red signal ratio at 25 to 250 mkM; format: functional, cell-based; details: dose 25-250 mkM
[10] = Activation of autophagy in human SH-SY5Y cells expressing GFP-LC3-RFP assessed as green-to-red signal ratio at 25 mkM relative to control; format: functional; details: at 25 µM
SH-SY5Y [11] = experiment: Activation of autophagy in human SH-SY5Y cells expressing GFP-LC3-RFP assessed as increase in Beclin-1 level at 25 to 250 mkM by Western blot analysis; format: functional, cell-based; details: dose 25-250 mkM
SH-SY5Y [12] = experiment: Activation of autophagy in human SH-SY5Y cells expressing GFP-LC3-RFP assessed as increase in ULK1 phosphorylation at S555 at 25 to 250 mkM by Western blot analysis; format: functional, cell-based; details: dose 25-250 mkM
SH-SY5Y [13] = experiment: Activation of autophagy in human SH-SY5Y cells expressing GFP-LC3-RFP assessed as increase in LC3-II level at 250 mkM by Western blot analysis; format: functional, cell-based
SH-SY5Y [14] = experiment: Downregulation of 4E-BP1 phosphorylation in human SH-SY5Y cells expressing GFP-LC3-RFP at 25 to 250 mkM by Western blot analysis; format: functional, cell-based; details: dose 25-250 mkM
SH-SY5Y [15] = experiment: Downregulation of ULK phosphorylation at S757 in human SH-SY5Y cells expressing GFP-LC3-RFP at 25 to 250 mkM by Western blot analysis; format: functional, cell-based; details: dose 25-250 mkM
SH-SY5Y [16] = experiment: Activation of autophagy in human SH-SY5Y cells expressing GFP-LC3-RFP assessed as increase in AMPK phosphorylation at 25 to 250 mkM by Western blot analysis; format: functional, cell-based; details: dose 25-250 mkM

Row | Compound | Activity (SH-SY5Y [1]) | Ratio [2] [%] | Activity (SH-SY5Y [3]) | Activity (SH-SY5Y [4]) | Activity (SH-SY5Y [5]) | Activity (SH-SY5Y [6]) | Activity (SH-SY5Y [7]) | Ratio [8] [%] | Activity (SH-SY5Y [9]) | Ratio [10] [%] | Activity (SH-SY5Y [11]) | Activity (SH-SY5Y [12]) | Activity (SH-SY5Y [13]) | Activity (SH-SY5Y [14]) | Activity (SH-SY5Y [15]) | Activity (SH-SY5Y [16])
1 | Nc1ncnc2c1[nH]c(=O)n2[C@@H]1O[C@H](CO)[C@@H](O)[C@H]1O | Active | 1.31 | inactive | Active | Active; Exhibited Moderate Activity | Dose-dependent-effect | inactive | 5.71 | Active | 3.62 | Active | Active | – | – | – | –
2 | Nc1ncnc2c1nc(Br)n2COCCO | – | 1.31 | – | – | – | – | – | -0.4 | – | 1.28 | – | – | – | – | – | –
3 | O=c1[nH]c2c(ncn3ccnc23)n1[C@@H]1O[C@H](CO)[C@@H](O)[C@H]1O | – | -1.32 | – | – | – | – | – | -0.79 | – | -1.76 | – | – | – | – | – | –
4 | Nc1ncnc2c1[nH]c(=O)n2COCCO | – | -0.47 | – | – | Not active; Exhibited Weakest Activity Among Tested Compounds | – | – | 2.59 | – | -2.79 | – | – | Active | – | – | –
5 | CNc1ncnc2c1ncn2[C@@H]1O[C@H](CO)[C@@H](O)[C@H]1O | – | -1.2 | – | – | Not active; Exhibited Weakest Activity Among Tested Compounds | – | – | 3.36 | – | -1.43 | – | – | Active | – | – | –
6 | Nc1ncnc2c1nc(Br)n2[C@H]1C[C@H](O)[C@@H](CO)O1 | – | 1.78 | – | – | – | – | – | 0.2 | – | 3.16 | – | – | – | – | – | –
7 | CCC(CC)COC(=O)[C@@H](C)N[P@](=O)(OC[C@H]1O[C@@H](n2cnc3c(NC)ncnc32)[C@H](O)[C@@H]1O)Oc1ccccc1 | Active | -3.79 | inactive | inactive | Active; Exhibited Higher Activity Compared To Parent Compound | – | – | 7.26 | Active | 0.44 | – | Active | – | Active; Result Provides Indirect Evidence Of Mtor Inhibition | Active; Result Provides Indirect Evidence Of Mtor Inhibition | Active
8 | Nc1nc2c([nH]c(=O)n2[C@H]2C[C@H](O)[C@@H](CO)O2)c(=O)[nH]1 | – | -0.68 | – | – | – | – | – | 1.94 | – | 1.51 | – | – | – | – | – | –
9 | Nc1ncnc2c1[nH]c(=O)n2[C@H]1C[C@H](O)[C@@H](CO)O1 | Active | 1.85 | inactive | Active | Active; Exhibited Moderate Activity | Dose-dependent-effect | inactive | 5.41 | Active | 1.85 | Active | Active | – | – | – | –
